Test results from US10568822B2, “Melanogenesis inhibitor comprising d-pantothenyl alcohol, and skin-whitening cosmetic containing same melanogenesis inhibitor” (POLA CHEMICAL INDUSTRIES, INC., priority 2014, dated 2020).

Key:
human normal melanocytes = test: Melanogenesis inhibition experiment (14C-2-thiouracil incorporation); type: cell-based; conditions: for Melanin Amount (%) Sample (2): 1% plant extract or 0.1 μg/mL existing skin-whitening compound alone, ratio to control; for synergistic effect of a melanogenesis inhibitory action: in combination with D-pantothenyl alcohol, conclusion from Table 2
Protocol: According to the method described below, 2-thiouracil (^14C-labeled 2-thiouracil in the present test) which is specifically incorporated into melanin in the melanin synthesis process within cells was used to evaluate the melanogenesis inhibitory action. With a complete medium for melanocyte culture (Invitrogen Corporation) used in a 24-well plate, human normal melanocytes (Kurabo Industries, Ltd.) were seeded in each well at a concentration of 6.0×10^4 cells/well/0.5 mL. Under a 5% carbon dioxide atmosphere, the culture was conducted at 37° C. for 24 hours. Then, replacement was made such that a 0.5 mL medium containing D-pantothenyl alcohol at 0 mM or 1 mM was in each of three wells for each concentration and, to these […] wells, 0.5 μCi/well of 2-[2-^14C] thiouracil (Daiichi Clarity Co., Ltd.) was further added. And it was further cultured for 3 days under the same conditions as the aforementioned culture conditions. After completion of the culture, the culture medium was removed from each well, which was washed with PBS (phosphate-buffered saline), and the number of cells was measured using the WST-8 reagent (Dojindo Laboratories). The WST-8 reagent was removed from each well, which was washed with PBS, and using 100 (w/v) % trichloroacetic acid (Wako Pure Chemical Industries, Ltd.), the cells were separated from the bottom of the wells, to which water was then added for dilution so that the concentration of the trichloroacetic acid could be 10 (w/v) %, and which were allowed to stand in a refrigerator for 30 minutes. After the cells were recovered by centrifugation, the amount of ^14C-thiouracil in the cells recovered from each well was measured with a liquid scintillation counter (Aloka Co., Ltd.).
Relative to the radiation doses of the cells cultured in the media containing 0 mM D-pantothenyl alcohol (control), the radiation doses of the cells cultured in the media containing 1 mM D-pantothenyl alcohol were each obtained in percentage as the amount of melanin (%). In other words, it is possible to determine that the smaller the radiation dose incorporated into each cell is, the smaller the amount of melanin is, and accordingly, it is possible to determine that the melanin inhibition titer of the added ingredient is larger.
(§1) While 0 mM or 0 μM D-pantothenyl alcohol was used as a control similarly, the 1 mM D-pantothenyl alcohol in <Experiment 1> was replaced with each of the following samples (1) to (3) for experimenting.

[1] = system: human normal keratinocytes; test: Keratinocyte cell proliferation experiment (WST-8); type: cell-based; conditions: for Cell Proliferation Rate (%) Sample (2): 1% plant extract or 0.1 μg/mL existing skin-whitening compound alone, ratio to control; for synergistic effect of a keratinocyte cell proliferation action: in combination with D-pantothenyl alcohol, conclusion from Table 2
Protocol: According to the method described below, the cell proliferation promoting action was evaluated. With a complete medium for keratinocyte culture (Kurabo Industries, Ltd.) used in a 24-well plate, human normal keratinocytes (Kurabo Industries, Ltd.) were seeded in each well at a concentration of 1.0×10^4 cells/well/1 mL. Under a 5% carbon dioxide atmosphere, the culture was conducted at 37° C. for 24 hours. Then, replacement was made such that a 1 mL medium containing D-pantothenyl alcohol at 0 μM, 15 μM, or 150 μM was in each of three wells for each concentration. And it was further cultured for 2 days under the same conditions as the aforementioned culture conditions. After completion of the culture, 20 μL of the WST-8 reagent (Dojindo Laboratories) was added to each well, and color reaction was allowed at 37° C. for 3 hours. After the reaction, absorbances at 450 nm and 650 nm were measured using a microplate reader, Benchmark Plus (Bio-Rad Laboratories), and the 450 nm absorbance measurement minus the 650 nm absorbance measurement was calculated to give a cell proliferation measurement.
Relative to the cell proliferation measurements for the wells cultured in the media containing 0 μM D-pantothenyl alcohol (control), the cell proliferation measurements for the wells cultured in the media containing D-pantothenyl alcohol were each obtained in percentage as a cell proliferation rate (%). In other words, it is possible to determine that the larger the absorbance value is, the higher the cell proliferation rate is, and accordingly, it is possible to determine that the cell proliferation promotion titer of the added ingredients is larger.
as §1
In addition, the 15 μM and the 150 μM D-pantothenyl alcohol in <Experiment 2> were replaced with the aforementioned samples (1) to (3) respectively for experimenting. Note that the amount of melanin (%) and the cell proliferation rate (%) in Table 2 are both a ratio to the control, as described in Experiment 1 and Experiment 2.

## c1ccc(C(c2ccccc2)(c2ccccc2)n2ccnc2)cc1 [Compound 1, 1-(triphenylmethyl) imidazole]
Human normal melanocytes
  Melanin Amount (%) Sample (2): 93.1%
  synergistic effect of a melanogenesis inhibitory action: synergistic effect
[1]
  Cell Proliferation Rate (%) Sample (2): 112.1%
  synergistic effect of a keratinocyte cell proliferation action: synergistic effect

## CSCCC(NC(=O)c1ccc(C)cc1)C(=O)O (stereo not shown) [Compound 45, N-(toluyl) methionine]
Human normal melanocytes
  Melanin Amount (%) Sample (2): 93.4%
[1]
  Cell Proliferation Rate (%) Sample (2): 113.2%

## CC(C)(CO)[C@@H](O)C(=O)NCCCO [D-pantothenyl alcohol]
Human normal melanocytes; 1 mM D-pantothenyl alcohol alone, ratio to 0 mM control
  Melanin Amount (%) Sample (1): 69.8%
Human normal melanocytes; Experiment 1, 1 mM vs 0 mM, FIG. 1, result in words
  melanogenesis inhibitory action: has a melanogenesis inhibitory action
[1]; 1 mM D-pantothenyl alcohol alone, ratio to 0 μM control
  Cell Proliferation Rate (%) Sample (1): 123.3%
[1]; Experiment 2, 15 μM or 150 μM vs 0 μM, FIG. 2, result in words
  keratinocyte cell proliferation action: has a keratinocyte cell proliferation action

## O=C(N[C@@H](CO)C(=O)O)c1ccccc1 [Compound 31, N-benzoyl-L-serine]
Human normal melanocytes
  Melanin Amount (%) Sample (2): 94.6%
  synergistic effect of a melanogenesis inhibitory action: synergistic effect
[1]
  Cell Proliferation Rate (%) Sample (2): 118.7%
  synergistic effect of a keratinocyte cell proliferation action: synergistic effect

## CCCCc1ccc(O)cc1O [4-n-butyl resorcinol]
Human normal melanocytes
  Melanin Amount (%) Sample (2): 93.2%
  synergistic effect of a melanogenesis inhibitory action: synergistic effect
[1]
  Cell Proliferation Rate (%) Sample (2): 120.3%
  synergistic effect of a keratinocyte cell proliferation action: synergistic effect

## C[C@H]1[C@H](C)CC[C@]2(C(=O)O)CC[C@]3(C)C(=CC[C@@H]4[C@@]5(C)CCC(OP(=O)(O)O)C(C)(C)[C@@H]5CC[C@]43C)[C@H]12 (stereo partly shown) [Ursolic acid phosphate ester, ursolic acid phosphate ester]
Human normal melanocytes
  Melanin Amount (%) Sample (2): 98.4%
  synergistic effect of a melanogenesis inhibitory action: synergistic effect
[1]
  Cell Proliferation Rate (%) Sample (2): 118.6%
  synergistic effect of a keratinocyte cell proliferation action: synergistic effect
